What was measured:
ALK kinase = ALK kinase (Homo sapiens, UniProt Q9UM73); assay: ALK kinase assay; format: biochemical; settings: ALK kinase assay; read-out: ALK (IC50 grading)
Procedure: An in vitro assay which determines the ability of a test compound to inhibit ALK kinase. a) kinase-tagged T7 phage strains were prepared in an E. coli host derived from the BL21 strain. E. coli were grown to log-phase and infected with T7 phage and incubated with shaking at 32° C. until lysis. The lysates were centrifuged and filtered to remove cell debris. The remaining kinases were produced in HEK-293 cells and subsequently tagged with DNA for qPCR detection. […] The liganded beads were blocked with excess biotin and washed with blocking buffer (SeaBlock (Pierce), 1% BSA, 0.05% Tween 20, 1 mM DTT) to remove unbound ligand and to reduce non-specific binding. […] All reactions were performed in polystyrene 96-well plates in a final volume of 0.135 ml. […] The kinase concentration in the eluates was measured by qPCR. […]
b) An alternative method to conduct the kinase assay with the following condition and procedure: Reagent: Base Reaction buffer; 20 mM Hepes (pH 7.5), 10 mM MgCl2, 1 mM EGTA, 0.02% Brij35, 0.02 mg/ml BSA, 0.1 mM Na3VO4, 2 mM DTT, 1% DMSO.
1. Preparing indicated substrate in freshly prepared Base Reaction Buffer
2. Delivering any required cofactors to the substrate solution above
3. Delivering indicated kinase into the substrate solution and gently mix
4. Delivering compounds in DMSO into the kinase reaction mixture
5. Delivering ^33P-ATP (specific activity 0.01 μCi/μl final) into the reaction mixture to initiate the reaction.
6. Incubating kinase reaction for 120 min. at room temperature
7. Reactions are spotted onto P81 ion exchange paper (Whatman #3698-915)
8. Washing filters extensively in 0.75% Phosphoric acid. […]
c) An alternative method to conduct the kinase assay with the following condition and procedure: The assay was performed using Kinase-Glo Plus luminescence kinase assay kit (Promega). It measures kinase activity by quantitating the amount of ATP remaining in solution following a kinase reaction. The luminescent signal from the assay is correlated with the amount of ATP present and is inversely correlated with the amount of kinase activity.
The compound were diluted in 10% DMSO and 5 μl of the dilution was added to a 50 μl reaction so that the final concentration of DMSO is 1% in all of reactions. All of the enzymatic reactions were conducted at 30° C. for 40 minutes. The 50 μl reaction mixture contains 40 mM Tris, pH 7.4, 10 mM MgCl2, 0.1 mg/ml BSA, 1 mM DTT, 0.2 mg/ml substrate peptide, 10 μM ATP and ALK (Table 2.3.1). After the enzymatic reaction, 50 μl of Kinase-Glo Plus Luminescence kinase assay solution (Promega) was added to each reaction and incubate the plate for 5 minutes at room temperature. Luminescence signal was measured using a BioTek Synergy 2 microplate reader. ALK activity assays were performed in duplicate at each concentration. The luminescence data were analyzed using the computer software, Graphpad Prism. The difference between luminescence intensities in the absence of ALK (Lut) and in the presence of ALK (Luc) was defined as 100% activity (Lut−Luc). Using luminescence signal (Lu) in the presence of the compound, % activity was calculated as % activity={(Lut−Lu)/(Lut−Luc)}×100%, where Lu=the luminescence intensity in the presence of the compound (all percent activities below zero were shown zero in the table). The values of % activity versus a series of compound concentrations were then plotted using non-linear regression analysis of Sigmoidal dose-response curve generated with the equation Y=B+(T−B)/1+10^((Log EC50−X)×Hill Slope), where Y=percent activity, B=minimum percent activity, T=maximum percent activity, X=logarithm of compound and Hill Slope=slope factor or Hill coefficient. The IC50 value was determined by the concentration causing a half-maximal percent activity.

[1] = biological target: T1, BAF3-EML4-ALK stable cell line (Homo sapiens, UniProt Q9UM73); assay: BAF3-EML4-ALK cell assay (MTT cell proliferation); format: cell-based; settings: 72 hours, read-out: BAF3-EML4-ALK Cell (IC50 grading)
T1 construct: fused on or other part: Q9HC35 (Echinoderm microtubule-associated protein-like 4)
T1 sequence (Q9UM73 whole entry, change not shown, the tested form may be a part): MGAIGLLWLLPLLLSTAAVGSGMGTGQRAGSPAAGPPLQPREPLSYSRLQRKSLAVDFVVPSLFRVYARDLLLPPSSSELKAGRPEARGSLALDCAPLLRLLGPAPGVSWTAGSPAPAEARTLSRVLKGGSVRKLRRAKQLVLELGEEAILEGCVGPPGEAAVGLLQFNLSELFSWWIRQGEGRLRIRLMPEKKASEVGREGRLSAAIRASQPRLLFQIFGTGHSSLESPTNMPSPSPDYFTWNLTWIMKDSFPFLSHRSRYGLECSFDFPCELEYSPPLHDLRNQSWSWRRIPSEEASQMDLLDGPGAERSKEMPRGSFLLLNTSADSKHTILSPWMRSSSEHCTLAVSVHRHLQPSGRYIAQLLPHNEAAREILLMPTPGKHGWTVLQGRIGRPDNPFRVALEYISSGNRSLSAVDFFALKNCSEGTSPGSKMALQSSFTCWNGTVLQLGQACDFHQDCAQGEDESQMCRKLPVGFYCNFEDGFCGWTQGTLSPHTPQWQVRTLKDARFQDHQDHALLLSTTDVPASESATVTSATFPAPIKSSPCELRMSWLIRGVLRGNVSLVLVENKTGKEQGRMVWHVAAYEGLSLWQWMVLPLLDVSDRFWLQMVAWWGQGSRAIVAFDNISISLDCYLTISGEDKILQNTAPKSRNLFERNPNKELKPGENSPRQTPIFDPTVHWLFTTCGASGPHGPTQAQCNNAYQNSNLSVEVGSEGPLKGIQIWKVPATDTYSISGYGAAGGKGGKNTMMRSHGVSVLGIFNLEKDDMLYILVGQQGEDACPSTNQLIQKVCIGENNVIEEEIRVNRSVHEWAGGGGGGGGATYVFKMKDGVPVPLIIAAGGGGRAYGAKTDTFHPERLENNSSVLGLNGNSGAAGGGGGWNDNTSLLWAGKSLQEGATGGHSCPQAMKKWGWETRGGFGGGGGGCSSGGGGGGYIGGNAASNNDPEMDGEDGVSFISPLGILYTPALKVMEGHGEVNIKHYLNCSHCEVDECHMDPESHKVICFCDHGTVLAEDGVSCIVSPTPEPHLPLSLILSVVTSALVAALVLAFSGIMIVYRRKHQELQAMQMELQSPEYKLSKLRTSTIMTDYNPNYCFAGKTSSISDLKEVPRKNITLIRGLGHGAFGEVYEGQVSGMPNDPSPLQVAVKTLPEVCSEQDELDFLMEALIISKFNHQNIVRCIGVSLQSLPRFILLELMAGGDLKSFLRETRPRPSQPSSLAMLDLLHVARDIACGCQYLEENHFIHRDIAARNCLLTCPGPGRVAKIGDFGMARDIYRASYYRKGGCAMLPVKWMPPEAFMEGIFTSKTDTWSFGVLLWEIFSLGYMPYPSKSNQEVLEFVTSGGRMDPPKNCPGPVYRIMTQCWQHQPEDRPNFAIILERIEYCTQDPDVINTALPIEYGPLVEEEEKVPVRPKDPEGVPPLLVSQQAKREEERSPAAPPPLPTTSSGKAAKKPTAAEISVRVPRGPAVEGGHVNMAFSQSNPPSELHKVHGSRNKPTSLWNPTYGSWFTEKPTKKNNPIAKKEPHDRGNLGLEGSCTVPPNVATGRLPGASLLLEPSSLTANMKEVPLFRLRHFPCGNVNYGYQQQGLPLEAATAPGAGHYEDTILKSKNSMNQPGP
Procedure: BAF3-EML4-ALK Cell Assay:
A method of establishing BAF3-EML4-ALK stable cell line: Transfer 5×10^6 BAF3 cells to a new tube, pellet the cells, and remove PBS by aspiration.; Resuspend the cells in 1 ml electroporation buffer, this provides 5×10^6 of cells; Transfer 200 μl of cell suspension to EP tube, add 5 ug DNA, flip and place it on ice for 10 min; Pipet the 200 μl cell suspension into 2 mm electroporation cuvette; Place the cuvette into shockpod, close the lid, and press the PULSE button; Set parameters: Expentional decay pulse: VOL=200 V; CAP=900 uF, RES=1000Ω; Transfer all cells from electroporation cuvette to 6 well plate, adding 2 ml DMEMF12 containing 5 ng/ml IL3, 24 h later, replace the medium with DMEM F12 containing 2 μg/ml blasticidin S and 5 ng/ml IL3, maintain for 3 days; change the medium with DMEM F12 containing 2 ug/ml blasticidin S and 2.5 ng/ml IL3, maintain 3 days; change the medium with DMEM F12 containing 2 ug/Ml blasticidin S, maintain to culture.
MTT Cell proliferation assay: 5×10^3 per well cell with 100 μl medium was seeded in 96-well plate; 24 hours later, 100 μl fresh medium with various concentration of compounds; After the cells were treated by compounds for 72 hours, add 20 μl MTT (5 mg/ml) into each wells; The plate is incubated at 37° C. for 4 hours; Centrifuge the plate at 800 g for 10 mins, Aspirated the medium, add 150 μl DMSO into each well. Shake plates gently for 10 mins, Measure the absorbance at 570 nm on plate reader; IR=(WC−WT)/WC.

[2] = PK (pharmacokinetic) study in rat, cassette dosing; format: in vivo; settings: male, Wistar, plasma
Procedure: A representative protocol for the PK (pharmacokinetic) is as followed: Animals used were Wistar rat, male and weight about 300-359 grams. Compound 21 and 22 were given either IV or oral to the same animals by cassette dosing. The dose for each compound is 1 mg/kg (volume 5 ml/kg) IV and 2 mg/kg (volume 10 ml/kg) oral. The formulation for IV was in PBS, the pH is adjusted by dilute HCl until compounds were totally dissolved. 0.5% Na-CMC suspension was used for the oral formulation. Sample collection: for IV route, plasma sample were collected at the time point 0.083, 0.25, 0.5, 1, 1.5, 2, 4, 6, 8, 12, 24 h. For oral route, plasma sample were collected at the time point 0.167, 0.33, 0.5, 1, 2, 4, 6, 8, 12, 24 h. Analysis: LC-MS/MS is used to calculate PK parameters: t1/2, tmax, Cmax, Vss and AUC etc.

ALK kinase, sequence (Q9UM73 19-1620): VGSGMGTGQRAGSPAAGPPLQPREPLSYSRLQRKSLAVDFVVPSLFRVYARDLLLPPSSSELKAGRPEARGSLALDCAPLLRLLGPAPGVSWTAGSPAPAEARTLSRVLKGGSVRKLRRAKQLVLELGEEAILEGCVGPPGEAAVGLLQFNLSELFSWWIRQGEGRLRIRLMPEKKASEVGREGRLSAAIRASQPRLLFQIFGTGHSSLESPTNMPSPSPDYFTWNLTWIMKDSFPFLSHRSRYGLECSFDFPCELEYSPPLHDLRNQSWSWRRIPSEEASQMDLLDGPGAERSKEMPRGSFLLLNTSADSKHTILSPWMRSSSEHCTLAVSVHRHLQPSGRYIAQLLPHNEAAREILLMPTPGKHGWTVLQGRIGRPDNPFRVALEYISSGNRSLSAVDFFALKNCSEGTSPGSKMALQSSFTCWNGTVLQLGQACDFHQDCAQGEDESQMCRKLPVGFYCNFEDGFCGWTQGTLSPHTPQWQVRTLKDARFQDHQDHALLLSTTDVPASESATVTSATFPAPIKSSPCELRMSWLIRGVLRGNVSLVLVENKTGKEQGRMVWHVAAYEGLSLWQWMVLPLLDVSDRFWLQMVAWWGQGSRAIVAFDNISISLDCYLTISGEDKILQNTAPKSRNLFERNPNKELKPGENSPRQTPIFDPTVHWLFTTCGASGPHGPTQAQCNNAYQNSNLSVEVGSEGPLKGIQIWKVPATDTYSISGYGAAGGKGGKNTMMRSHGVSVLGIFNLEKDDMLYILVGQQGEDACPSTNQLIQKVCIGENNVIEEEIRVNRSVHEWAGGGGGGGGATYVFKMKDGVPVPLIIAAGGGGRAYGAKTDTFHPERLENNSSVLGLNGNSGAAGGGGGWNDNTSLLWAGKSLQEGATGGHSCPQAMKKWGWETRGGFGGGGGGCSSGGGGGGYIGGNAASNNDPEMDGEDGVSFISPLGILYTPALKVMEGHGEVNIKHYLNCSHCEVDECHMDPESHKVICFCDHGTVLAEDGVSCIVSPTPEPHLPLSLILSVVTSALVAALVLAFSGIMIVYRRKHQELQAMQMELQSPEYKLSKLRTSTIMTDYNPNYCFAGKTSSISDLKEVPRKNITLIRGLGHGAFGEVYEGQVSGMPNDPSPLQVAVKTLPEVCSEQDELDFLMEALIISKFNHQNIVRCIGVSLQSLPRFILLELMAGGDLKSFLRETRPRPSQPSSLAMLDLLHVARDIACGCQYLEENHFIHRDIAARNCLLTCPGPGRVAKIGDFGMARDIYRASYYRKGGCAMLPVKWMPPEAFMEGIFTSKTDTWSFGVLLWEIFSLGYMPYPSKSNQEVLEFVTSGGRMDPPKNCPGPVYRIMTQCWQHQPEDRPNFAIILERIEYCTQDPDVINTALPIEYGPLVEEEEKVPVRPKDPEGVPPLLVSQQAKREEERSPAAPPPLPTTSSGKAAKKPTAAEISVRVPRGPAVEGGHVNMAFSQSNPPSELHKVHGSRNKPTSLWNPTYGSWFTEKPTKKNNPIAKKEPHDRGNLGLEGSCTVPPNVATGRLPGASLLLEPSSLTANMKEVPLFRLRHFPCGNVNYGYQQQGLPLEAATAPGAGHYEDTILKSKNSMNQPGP

Row | SMILES | IC50 (ALK kinase) | GI50 [1] | further results
1 | CCN1CCC(n2cc(-c3cnc(N)c(OC(C)c4c(Cl)ccc(F)c4Cl)c3)cn2)CC1 (centres unmarked) [Compound 7, 3-(1-(2,6-dichloro-3-fluorophenyl)ethoxy)-5-(1-(1-ethylpiperidin-4-yl)-1H-pyrazol-4-yl)pyridin-2-amine] | ≤ 0.1 µM | ≤ 0.1 µM | 
2 | CC(=O)Nc1ncc(-c2cnn(C3CCNCC3)c2)cc1OC(C)c1c(Cl)ccc(F)c1Cl (centres unmarked) [Compound 9, N-(3-(1-(2,6-dichloro-3-fluorophenyl)ethoxy)-5-(1-(piperidin-4-yl)-1H-pyrazol-4-yl)pyridin-2-yl)acetamide] | ≤ 0.1 µM | ≤ 0.1 µM | 
3 | CCN1CCC(n2cc(-c3cnc(NC(C)=O)c(OC(C)c4c(Cl)ccc(F)c4Cl)c3)cn2)CC1 (centres unmarked) [Compound 10, N-(3-(1-(2,6-dichloro-3-fluorophenyl)ethoxy)-5-(1-(1-ethylpiperidin-4-yl)-1H-pyrazol-4-yl)pyridin-2-yl)acetamide] | 0.1 to 1 µM | 0.1 to 1 µM | 
4 | CCNc1ncc(-c2cnn(C3CCNCC3)c2)cc1OC(C)c1c(Cl)ccc(F)c1Cl (centres unmarked) [Compound 11, 3-(1-(2,6-dichloro-3-fluorophenyl)ethoxy)-N-ethyl-5-(1-(piperidin-4-yl)-1H-pyrazol-4-yl)pyridin-2-amine] | ≤ 1 µM | ≤ 1 µM | 
5 | CCCNc1ncc(-c2cnn(C3CCNCC3)c2)cc1OC(C)c1c(Cl)ccc(F)c1Cl (centres unmarked) [Compound 12, 3-(1-(2,6-dichloro-3-fluorophenyl)ethoxy)-5-(1-(piperidin-4-yl)-1H-pyrazol-4-yl)-N-propylpyridin-2-amine] | ≤ 1 µM | ≤ 1 µM | 
6 | CC(=O)Nc1ncc(-c2cnn(C3CCNCC3)c2)cc1O[C@@H](C)c1c(Cl)ccc(F)c1Cl [Compound 13, (S)—N-(3-(1-(2,6-dichloro-3-fluorophenyl)ethoxy)-5-(1-(piperidin-4-yl)-1H-pyrazol-4-yl)pyridin-2-yl)acetamide] | 0.1 to 1 µM | ≤ 1 µM | 
7 | C[C@H](Oc1cc(-c2cnn(C3CCN(C)CC3)c2)cnc1N)c1c(Cl)ccc(F)c1Cl [Compound 14, (S)-3-(1-(2,6-dichloro-3-fluorophenyl)ethoxy)-5-(1-(1-methylpiperidin-4-yl)-1H-pyrazol-4-yl)pyridin-2-amine] | 0.1 to 1 µM | ≤ 1 µM | 
8 | [2H]C([2H])([2H])N1CCC(n2cc(-c3cnc(N)c(O[C@@H](C)c4c(Cl)ccc(F)c4Cl)c3)cn2)CC1 [Compound 15, (S)-3-(1-(2,6-dichloro-3-fluorophenyl)ethoxy)-5-(1-(1-d3-methyl-piperidin-4-yl)-1H-pyrazol-4-yl)pyridin-2-amine] | 0.1 to 1 µM | ≤ 1 µM | 
9 | CCN1CCC(n2cc(-c3cnc(N)c(O[C@@H](C)c4c(Cl)ccc(F)c4Cl)c3)cn2)CC1 [Compound 16, (S)-3-(1-(2,6-dichloro-3-fluorophenyl)ethoxy)-5-(1-(1-ethylpiperidin-4-yl)-1H-pyrazol-4-yl)pyridin-2-amine] | 0.1 to 1 µM | ≤ 1 µM | 
10 | [2H]C([2H])([2H])C([2H])([2H])N1CCC(n2cc(-c3cnc(N)c(O[C@@H](C)c4c(Cl)ccc(F)c4Cl)c3)cn2)CC1 [Compound 17, (S)-3-(1-(2,6-dichloro-3-fluorophenyl)ethoxy)-5-(1-(1-d5-ethyl-piperidin-4-yl)-1H-pyrazol-4-yl)pyridin-2-amine] | 0.1 to 1 µM | ≤ 1 µM | 
11 | C[C@@H](Oc1cc(-c2cnn(C3CCN(C)CC3)c2)cnc1N)c1c(Cl)ccc(F)c1Cl [Compound 19, (R)-3-(1-(2,6-dichloro-3-fluorophenyl)ethoxy)-5-(1-(1-methylpiperidin-4-yl)-1H-pyrazol-4-yl)pyridin-2-amine] | ≤ 0.1 µM | ≤ 0.1 µM | 
12 | CCN1CCC(n2cc(-c3cnc(N)c(O[C@H](C)c4c(Cl)ccc(F)c4Cl)c3)cn2)CC1 [Compound 21, (R)-3-(1-(2,6-dichloro-3-fluorophenyl)ethoxy)-5-(1-(1-ethylpiperidin-4-yl)-1H-pyrazol-4-yl)pyridin-2-amine] | ≤ 0.1 µM | ≤ 0.1 µM | AUC(0-inf) ([2]; IV cassette 1 mg/kg): 443 ng·h/mL; AUC(0-t) ([2]; IV cassette 1 mg/kg): 442 ng·h/mL; Cmax ([2]; IV cassette 1 mg/kg): 317 ng/mL; MRT ([2]; IV cassette 1 mg/kg): 2.89 h; Tmax ([2]; IV cassette 1 mg/kg): 0.083 h; clearance ([2]; IV cassette 1 mg/kg): 37.7 mL/min/kg; half-life ([2]; IV cassette 1 mg/kg): 2.89 h; AUC(0-inf) ([2]; oral cassette 2 mg/kg): 154 ng·h/mL; AUC(0-t) ([2]; oral cassette 2 mg/kg): 148 ng·h/mL; Cmax ([2]; oral cassette 2 mg/kg): 22.9 ng/mL; MRT ([2]; oral cassette 2 mg/kg): 4.97 h; Tmax ([2]; oral cassette 2 mg/kg): 4 h; half-life ([2]; oral cassette 2 mg/kg): 2.99 h; bioavailability ([2]; oral cassette 2 mg/kg vs IV 1 mg/kg, read-out: F (bioavailability)): 16.8%

Reference: US20140350050A1, “PYRIDINE COMPOUNDS AS INHIBITORS OF KINASE” (TELIGENE LTD., priority 2011, published 2014)
